# According to patent publication US8604053B2, “TRPV1 antagonists” (AbbVie Inc., priority 2008, dated 2013):
# Key:
# CYP3A4 = biological target: T1, CYP3A4 (Homo sapiens, UniProt P08684); assay: CYP3A4 inhibition assay; type: in vitro ADME; settings: human liver microsomes, substrate BZQ; for inhibition at 25 min, 2.2 µM: pH 7.4, probe 7-benzyloxyquiniline (BZQ), 50 μM final, read-out: CYP3A4 % inh @ 2.2 μM
# T1 construct: human liver microsomes (BD Gentest, 450 μL; final concentration: 0.4 mg/mL); tissue BD Gentest; host or cells: human liver microsomes
# Protocol: Luciferin-H was used as the substrate for CYP2C9; 3-[2-(N,N-diethyl-N-methylammonium)ethyl]-7-methoxy-4-methylcoumarin (AMMC) was used as the substrate for CYP2D6; 7-benzyloxyquiniline (BZQ) was used as the substrate for CYP3A4.
# Pre-Incubation Mixture Preparation for CYP3A4: A pre-incubation mixture was prepared by combining 100 mM phosphate buffer (19.35 mL; pH 7.4), human liver microsomes (BD Gentest, 450 μL; final concentration: 0.4 mg/mL), and 10 mM nicotinamide adenine dinucleotide phosphate in 65.4 mM MgCl2 hexahydrate (225 μL; final concentration: 100 μM and 654 μM, respectively). To this was mixture was added a ‘regeneration’ mixture (225 μL) of 333 mM glucose-6-phosphate and 40 U/mL glucose-6-phosphate dehydrogenase in 5 mM sodium citrate (final concentration: 3.3 mM, 0.4 U/mL, and 0.05 mM, respectively).
# Substrate Mixture Preparation for CYP3A4: To a solution of 100 mM phosphate buffer, (2.36 mL, pH 7.4) was added 30 mM BZQ in acetonitrile (40 μL; final solution concentration 0.5 mM, final assay concentration 50 μM).
# CYP3A4 Inhibiton Assay: To each well in the assay plate containing varying concentrations of test compound or control compound in DMSO (10 μL), CYP3A4 Pre-Incubation Mixture (90 μL) was added to the wells and the assay plate was pre-incubated for 10 minutes at 37° C., with shaking or rocking. A pre-read of each well was performed at 405 nm and 535 nm extinction/emission. CYP3A4 Substrate Mixture (10 μL) was added to all wells and the assay plate was incubated for an additional […] at 37° C., with shaking or rocking. Final DMSO concentration was 1%. A post-read of each well was then performed at 405 nm and 535 nm extinction/emission.
# [1] = biological target: T2, human TRPV1 receptor (hTRPV1) (Homo sapiens, UniProt Q8NER1); assay: Capsaicin activation assay (Ca2+ influx, FLIPR); type: cell-based; settings: hTRPV1 in 1321N1 cells, 0.05 μM capsaicin
# T2 construct: expressed in transfected cells
# Summary of the method: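 1321N1 astrocytoma cells stably expressing recombinant hTRPV1, loaded with Fluo-4 AM (2 μM, 1-2 h, 23 °C); compounds added 3 min before capsaicin (0.05 μM final), 11-point half-log range. Peak FLIPR fluorescence over baseline as % of capsaicin control; IC50 from four-parameter Hill fit.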
# T1 sequence (P08684 whole entry): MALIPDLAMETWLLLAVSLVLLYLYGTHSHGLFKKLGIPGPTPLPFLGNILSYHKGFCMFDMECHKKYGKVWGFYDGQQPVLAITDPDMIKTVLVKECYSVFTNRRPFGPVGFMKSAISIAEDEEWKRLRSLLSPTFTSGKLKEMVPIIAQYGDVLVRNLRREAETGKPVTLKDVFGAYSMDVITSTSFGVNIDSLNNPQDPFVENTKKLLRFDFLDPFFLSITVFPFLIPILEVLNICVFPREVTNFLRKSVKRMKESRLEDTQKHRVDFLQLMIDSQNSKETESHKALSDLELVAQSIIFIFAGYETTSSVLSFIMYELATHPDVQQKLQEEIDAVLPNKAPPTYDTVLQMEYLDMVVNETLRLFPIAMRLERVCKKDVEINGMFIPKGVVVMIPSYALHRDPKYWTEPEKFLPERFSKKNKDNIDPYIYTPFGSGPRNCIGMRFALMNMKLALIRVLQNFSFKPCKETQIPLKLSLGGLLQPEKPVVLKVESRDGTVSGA
# T2 sequence (Q8NER1 whole entry): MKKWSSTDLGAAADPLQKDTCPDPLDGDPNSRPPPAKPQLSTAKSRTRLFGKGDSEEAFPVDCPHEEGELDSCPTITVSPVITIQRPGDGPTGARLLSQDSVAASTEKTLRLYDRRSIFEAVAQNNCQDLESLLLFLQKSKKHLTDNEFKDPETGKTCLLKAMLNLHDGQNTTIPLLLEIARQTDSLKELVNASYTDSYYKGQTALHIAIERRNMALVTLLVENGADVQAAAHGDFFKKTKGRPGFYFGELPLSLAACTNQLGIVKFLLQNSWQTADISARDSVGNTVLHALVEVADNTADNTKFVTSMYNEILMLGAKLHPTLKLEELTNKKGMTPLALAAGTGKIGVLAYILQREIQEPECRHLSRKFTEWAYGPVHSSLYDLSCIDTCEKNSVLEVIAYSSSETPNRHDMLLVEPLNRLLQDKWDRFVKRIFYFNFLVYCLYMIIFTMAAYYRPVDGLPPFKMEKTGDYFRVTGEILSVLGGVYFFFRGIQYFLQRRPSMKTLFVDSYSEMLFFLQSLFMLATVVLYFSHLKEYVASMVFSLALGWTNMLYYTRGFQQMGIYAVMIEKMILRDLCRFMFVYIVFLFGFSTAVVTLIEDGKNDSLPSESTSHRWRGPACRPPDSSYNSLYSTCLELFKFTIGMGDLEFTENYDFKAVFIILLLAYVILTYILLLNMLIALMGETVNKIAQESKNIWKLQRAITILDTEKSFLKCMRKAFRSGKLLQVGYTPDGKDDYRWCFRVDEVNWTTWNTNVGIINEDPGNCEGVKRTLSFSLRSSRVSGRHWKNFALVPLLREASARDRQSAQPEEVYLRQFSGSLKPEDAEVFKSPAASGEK
"inhibition at 25 min, 2.2 µM (CYP3A4)",Compound,IC50 [1],CYP3A4 % inh @ 2.2 μM (CYP3A4)
–,"N-[(4R)-2,2-diethyl-6-fluoro-3,4-dihydro-2H-chromen-4-yl]-N-(3-methylisoquinolin-5-yl)urea [Example 56]",15 nM,17%
65%,"CC1(C)C[C@@H](NC(=O)Nc2cccc3cnccc23)c2ccccc2O1 [Example 27, N-[(4R)-2,2-dimethyl-3,4-dihydro-2H-chromen-4-yl]-N′-isoquinolin-5-ylurea]",32 nM,–
3.8%,"Cc1cc2c(NC(=O)N[C@@H]3CC(CF)(CF)Oc4c(Cl)cccc43)cccc2cn1 [Example 91, N-[(4R)-8-chloro-2,2-bis(fluoromethyl)-3,4-dihydro-2H-chromen-4-yl]-N′-(3-methylisoquinolin-5-yl)urea]",26 nM,–
0%,"Cc1cc2c(NC(=O)N[C@@H]3CC(CF)(CF)Oc4c(OC(F)(F)F)cccc43)cccc2cn1 [Example 87, N-[(4R)-2,2-bis(fluoromethyl)-8-(trifluoromethoxy)-3,4-dihydro-2H-chromen-4-yl]-N′-(3-methylisoquinolin-5-yl)urea]",10 nM,–
–,"N-[(4R)-2,2-diethyl-8-fluoro-3,4-dihydro-2H-chromen-4-yl]-N-(3-methylisoquinolin-5-yl)urea [Example 62]",4 nM,0%
36%,"CC1(C)C[C@@H](NC(=O)Nc2cccc3cnccc23)c2ccc(C(F)(F)F)cc2O1 [Example 34, N-[(4R)-2,2-dimethyl-7-(trifluoromethyl)-3,4-dihydro-2H-chromen-4-yl]-N′-isoquinolin-5-ylurea]",5 nM,–
0%,"Cc1cc2c(NC(=O)N[C@@H]3CC(C)(C)Oc4c(OC(F)(F)F)cccc43)cccc2cn1 [Example 94, N-[(4R)-2,2-dimethyl-8-(trifluoromethoxy)-3,4-dihydro-2H-chromen-4-yl]-N′-(3-methylisoquinolin-5-yl)urea]",9 nM,–
0%,"CCC1(CC)C[C@@H](NC(=O)Nc2cccc3cnc(C)cc23)c2ccc(Cl)cc2O1 [Example 69, N-[(4R)-7-chloro-2,2-diethyl-3,4-dihydro-2H-chromen-4-yl]-N′-(3-methylisoquinolin-5-yl)urea]",4 nM,–
11%,"Cc1cc2c(NC(=O)N[C@@H]3C[C@](C)(CF)Oc4c(F)cccc43)cccc2cn1 [Example 126, N-[(2R,4R)-8-fluoro-2-(fluoromethyl)-2-methyl-3,4-dihydro-2H-chromen-4-yl]-N′-(3-methylisoquinolin-5-yl)urea]",200 nM,–

Compound,"inhibition at 25 min, 2.2 µM (CYP3A4)",IC50 [1],CYP3A4 % inh @ 2.2 μM (CYP3A4)
"Cc1cc2c(NC(=O)N[C@@H]3CC(C)(C)Oc4c3ccc(F)c4F)cccc2cn1 [Example 113, N-[(4R)-7,8-difluoro-2,2-dimethyl-3,4-dihydro-2H-chromen-4-yl]-N′-(3-methylisoquinolin-5-yl)urea]",9%,12 nM,–
"Cc1cc2c(NC(=O)N[C@@H]3CC(C)(C)Oc4c(F)cccc43)cccc2cn1 [Example 119, N-[(4R)-8-fluoro-2,2-dimethyl-3,4-dihydro-2H-chromen-4-yl]-N′-(3-methylisoquinolin-5-yl)urea]",0%,28 nM,–
"Cc1cc2c(NC(=O)N[C@@H]3C[C@@](C)(CF)Oc4cc(Cl)ccc43)cccc2cn1 (single isomer, unassigned) [Example 122]",20%,30 nM,–
"Cc1cc2c(NC(=O)N[C@@H]3CC(C)(C)Oc4c3ccc(F)c4Cl)cccc2cn1 [Example 110, N-[(4R)-8-chloro-7-fluoro-2,2-dimethyl-3,4-dihydro-2H-chromen-4-yl]-N′-(3-methylisoquinolin-5-yl)urea]",0.25%,23 nM,–
"Cc1cc2c(NC(=O)N[C@@H]3C[C@](C)(CF)Oc4cc(Cl)ccc43)cccc2cn1 (single isomer, unassigned) [Example 121]",23%,9 nM,–
"Cc1cc2c(NC(=O)N[C@@H]3CC(C)(C)Oc4cc(Cl)ccc43)cccc2cn1 [Example 97, N-[(4R)-7-chloro-2,2-dimethyl-3,4-dihydro-2H-chromen-4-yl]-N′-(3-methylisoquinolin-5-yl)urea]",0%,7 nM,–
